# Experiments:
# [1] = molecular target: human recombinant BuChE (hBuChE) (Homo sapiens, UniProt P06276); experiment: BuChE inhibition, Ellman spectrophotometry; format: biochemical; settings: stronger than donepezil
# PC12 cells = experiment: CCK-8 cytotoxicity in PC12 cells; format: cell-based; settings: 24 h
# BV-2 cells = experiment: CCK-8 cytotoxicity in BV-2 cells; format: cell-based; settings: 24 h
# Kunming mice = experiment: In vivo acute toxicity
# [2] = tested on: mice with scopolamine-induced memory impairment; experiment: Step-down passive avoidance test, scopolamine-induced memory impairment; format: in vivo
# eqBuChE = eqBuChE (Equus caballus, UniProt P81908); experiment: BuChE inhibition, Ellman spectrophotometry; format: biochemical, equine; settings: more potent than donepezil
# [3] = 7d 5, 10, 20 mg/kg oral, scopolamine 3 mg/kg i.p., dose-dependent
# [4] = high-dose 20 mg/kg oral vs donepezil 10 mg/kg
# [5] = medium-dose 10 mg/kg oral vs donepezil 10 mg/kg
# human recombinant BuChE (hBuChE), sequence (P06276 29-602): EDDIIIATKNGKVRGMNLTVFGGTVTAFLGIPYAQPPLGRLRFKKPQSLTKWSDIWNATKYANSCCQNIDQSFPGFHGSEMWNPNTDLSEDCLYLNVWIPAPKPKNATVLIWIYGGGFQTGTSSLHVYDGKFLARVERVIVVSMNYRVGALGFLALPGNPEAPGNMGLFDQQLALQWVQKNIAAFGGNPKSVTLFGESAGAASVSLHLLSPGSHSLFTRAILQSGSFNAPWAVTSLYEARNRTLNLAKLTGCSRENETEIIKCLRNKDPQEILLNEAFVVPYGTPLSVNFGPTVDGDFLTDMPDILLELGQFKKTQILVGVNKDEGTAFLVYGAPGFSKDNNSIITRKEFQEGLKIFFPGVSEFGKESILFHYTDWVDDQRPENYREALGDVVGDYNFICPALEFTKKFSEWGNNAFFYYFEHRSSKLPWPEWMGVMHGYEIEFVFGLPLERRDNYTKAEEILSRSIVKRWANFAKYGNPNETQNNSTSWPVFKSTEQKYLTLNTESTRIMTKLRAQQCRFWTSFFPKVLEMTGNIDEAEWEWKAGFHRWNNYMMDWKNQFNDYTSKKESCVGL
# eqBuChE, sequence (P81908 whole entry): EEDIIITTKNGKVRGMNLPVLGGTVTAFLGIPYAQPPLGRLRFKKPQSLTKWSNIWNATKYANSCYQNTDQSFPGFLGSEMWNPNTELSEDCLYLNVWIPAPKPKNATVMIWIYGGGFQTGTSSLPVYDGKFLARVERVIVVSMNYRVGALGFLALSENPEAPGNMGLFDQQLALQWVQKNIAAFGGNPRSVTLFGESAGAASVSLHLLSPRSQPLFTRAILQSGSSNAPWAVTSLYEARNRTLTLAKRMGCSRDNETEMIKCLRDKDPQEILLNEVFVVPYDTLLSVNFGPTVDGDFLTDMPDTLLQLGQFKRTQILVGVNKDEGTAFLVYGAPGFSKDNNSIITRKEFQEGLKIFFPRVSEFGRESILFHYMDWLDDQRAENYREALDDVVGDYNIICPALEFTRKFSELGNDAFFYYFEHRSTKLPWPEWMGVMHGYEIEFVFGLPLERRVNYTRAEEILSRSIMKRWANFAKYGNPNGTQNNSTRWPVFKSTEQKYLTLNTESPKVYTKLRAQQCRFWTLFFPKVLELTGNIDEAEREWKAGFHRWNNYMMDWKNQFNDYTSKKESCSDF
compound,measurement,setting,value
"C#CCN(C)CCCCCCCOc1cccc(CN(C)c2c3c(nc4ccccc24)CCCC3)c1 [Compound 6f, N-methyl-N-(3-((7-(methyl(prop-2-yn-1-yl)amino)heptyl)oxy)benzyl)-1,2,3,4-tetrahydroacridin-9-amine]",hBuChE potency relative to donepezil,[1],approximately 7 fold
"C#CCN(C)CCCCCCOCc1ccc(CN(C)c2c3c(nc4ccccc24)CCCC3)cc1 [Compound 7d, N-methyl-N-(4-(((6-(methyl(prop-2-yn-1-yl)amino)hexyl)oxy)methyl)benzyl)-1,2,3,4-tetrahydroacridin-9-amine]",Effect on cell viability,"PC12 cells; PC12, 0.325 to 2.5 μM",no significant effect
same,Effect on cell viability,"PC12 cells; PC12, above 2.5 μM",decrease in cell viability
same,Cytotoxicity,"BV-2 cells; BV-2, 10 μM",> 50%
same,Effect on cell viability,"BV-2 cells; BV-2, 0.325 to 2.5 μM",no significant effect
same,Effect on cell viability,"BV-2 cells; BV-2, above 2.5 μM",decrease in cell viability
same,"Death, abnormal behavior or dietary changes","Kunming mice; KM mice, oral 625, 1250 and 2500 mg/kg, monitored 4 h",No such effects were observed
same,Average body weight change,"Kunming mice; KM mice, single oral dose 625, 1250, 2500 mg/kg, 14 days, vs control group",comparable to that in the control group
same,"Tissue damage (HE staining of heart, liver, kidney, lung, brain)","Kunming mice; mice, 2500 mg/kg oral, day 14",no obvious signs of tissue damage
same,Latency in step-down test,[2]; [3],prolong the latency
same,Number of errors in step-down test,[2]; [3],reduce the number of errors
same,Latency compared with donepezil,[2]; [4],longer latency
same,Number of errors compared with donepezil,[2]; [4],fewer errors
same,Number of errors compared to model group,"[2]; low-dose 5 mg/kg oral, Kruskal–Wallis test, p = 0.2219",not statistically significant
same,Latency compared with donepezil,[2]; [5],similar
same,Number of errors compared with donepezil,[2]; [5],similar
"C#CCN(C)CCCCCCCOCc1ccc(CN(C)c2c3c(nc4ccccc24)CCCC3)cc1 [Compound 7e, N-methyl-N-(4-(((7-(methyl(prop-2-yn-1-yl)amino)heptyl)oxy)methyl)benzyl)-1,2,3,4-tetrahydroacridin-9-amine]",eqBuChE potency relative to donepezil,eqBuChE,approximately 18 fold

# From PMC10822116 (Drug Design, Development and Therapy, 2024)
